Data from patent US20240002375A1, “2-(INDAZOL-5-YL)-6-(PIPERIDIN-4-YL)-1,7-NAPHTHYRIDINE DERIVATIVES AND RELATED COMPOUNDS AS MODULATORS FOR SPLICING NUCLEIC ACIDS AND FOR THE TRE” (REMIX THERAPEUTICS INC., priority 2020, published 2024).
Where a name gives a salt, the structure may show the parent alone.

What was measured:
Assay type in all cases: cell-based
Target C CJ mRNA = assay: Gene panel canonical junction qPCR splicing assay, Target C; conditions: Table 4, read-out: Target C IC50 (decrease in CJ mRNA levels)
How it was run: (§1)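 A673 or K562 cells treated with compound; canonical-junction mRNA measured by RT-qPCR with junction-spanning primer/probe sets, normalized to GAPDH, GUSB or PPIA and DMSO (2^−ΔΔCt). IC50 for CJ decrease from 4-parameter logistic fit of percentage response.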

HTT CJ mRNA = assay: Gene panel canonical junction qPCR splicing assay, HTT; conditions: Table 4, read-out: HTT IC50 (decrease in CJ mRNA levels)
How it was run: as §1

SMN2 CJ mRNA = assay: Gene panel canonical junction qPCR splicing assay, SMN2; conditions: Table 4, read-out: SMN2 IC50 (decrease in CJ mRNA levels)
How it was run: as §1

HTT mRNA = assay: Splicing assay (RT-qPCR) of HTT mRNA alternative junction (AJ) and canonical junction (CJ); conditions: A673 or K562 cells, 24 hours; for IC50: decrease in CJ mRNA, read-out: HTT CJ IC50; for AC50: increase in AJ mRNA, read-out: HTT AJ AC50
How it was run: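 HTT splice switching read as formation of an alternative-exon junction (AJ) versus the canonical junction (CJ) by one-step RT-qPCR on cell lysates, with GAPDH/GUSB housekeeping normalisation in K562 and PPIA in A673. Compounds: 11-point 3-fold series up to 10 uM, ≤0.25% DMSO, 24 h at 37 °C.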

Structure (SMILES)	IC50 (Target C CJ mRNA) [nM]	IC50 (HTT CJ mRNA) [nM]	IC50 (SMN2 CJ mRNA) [nM]	IC50 (HTT mRNA) [nM]	AC50 (HTT mRNA) [nM]
Cn1cc2cc(-c3ccc4nc(N5CCC(NC(C)(C)C)C5)ccc4n3)c(O)cc2n1 (stereo not drawn) [Compound 127, 5-[6-[3-(tert-butylamino)pyrrolidin-1-yl]-1,5-naphthyridin-2-yl]-2-methylindazol-6-ol]	< 100	< 100	< 100	< 100	< 100
CN(C)C1CCN(c2ccc3nc(-c4cc5cn(C)nc5cc4O)ccc3n2)C1 (stereo not drawn) [Compound 129, 5-[6-[3-(dimethylamino)pyrrolidin-1-yl]-1,5-naphthyridin-2-yl]-2-methylindazol-6-ol]	100 to 1000	100 to 1000	< 100	100 to 1000	100 to 1000
CN(c1ccc2nc(-c3cc4cn(C)nc4cc3O)ccc2n1)C1CC(C)(C)NC(C)(C)C1 [Compound 130]	> 10000	> 10000	100 to 1000	> 10000	> 10000
CCNC1CCN(c2ccc3nc(-c4cc5cn(C)nc5cc4O)ccc3n2)CC1 [Compound 131, 5-[6-[4-(ethylamino)piperidin-1-yl]-1,5-naphthyridin-2-yl]-2-methylindazol-6-ol]	> 10000	1000 to 10000	< 100	1000 to 10000	> 10000
Cn1cc2cc(-c3ccc4nc(N5CCC(NC(C)(C)C)CC5)ccc4n3)c(O)cc2n1 [Compound 132, 5-[6-[4-(tert-butylamino)piperidin-1-yl]-1,5-naphthyridin-2-yl]-2-methylindazol-6-ol]	> 10000	> 10000	> 10000	> 10000	> 10000
CN(C)C1CCN(c2ccc3nc(-c4cc5cn(C)nc5cc4O)ccc3n2)CC1 [Compound 133, 5-[6-[4-(dimethylamino)piperidin-1-yl]-1,5-naphthyridin-2-yl]-2-methylindazol-6-ol]	1000 to 10000	1000 to 10000	< 100	1000 to 10000	1000 to 10000
Cn1cc2cc(-c3ccc4nc(N5CCN6CCCC6C5)ccc4n3)c(O)cc2n1 (stereo not drawn) [Compound 134, 5-(6-[hexahydro-1H-pyrrolo[1,2-a]pyrazin-2-yl]-1,5-naphthyridin-2-yl)-2-methylindazol-6-ol]	1000 to 10000	1000 to 10000	< 100	1000 to 10000	1000 to 10000
Cn1cc2cc(-c3ccc4nc(N5C[C@H]6CC[C@@H](C5)N6)ccc4n3)c(O)cc2n1 [Compound 135, 5-[6 [(1R,5 S)-3,8-diazabicyclo[3.2.1]octan-3-yl]-1,5-naphthyridin-2-yl]-2-methylindazol-6-01]	1000 to 10000	1000 to 10000	< 100	1000 to 10000	1000 to 10000
Cn1cc2cc(-c3ccc4nc(N5CCNCC5)ccc4n3)c(O)cc2n1 [Compound 136]	100 to 1000	1000 to 10000	< 100	1000 to 10000	1000 to 10000
C[C@@H]1CC(c2ccc3nc(-c4cc5cn(C)nc5cc4O)ccc3n2)C[C@H](C)N1 (stereo partly drawn) [Compound 137, 5-[6-[(2R,6S)-2,6-dimethylpiperidin-4-yl]-1,5-naphthyridin-2-yl]-2-methylindazol-6-ol]	1000 to 10000	100 to 1000	< 100	100 to 1000	100 to 1000
CCN1CCC(c2ccc3nc(-c4cc5cn(C)nc5cc4O)ccc3n2)CC1 [Compound 138, 5-[6-(1-ethylpiperidin-4-yl)-1,5-naphthyridin-2-yl]-2-methylindazol-6-ol]	1000 to 10000	100 to 1000	< 100	100 to 1000	100 to 1000
Cn1cc2c(O)c(-c3cc4ccc(C5CCNCC5)nc4cn3)cc(Br)c2n1 [Compound 141]	> 10000	1000 to 10000	100 to 1000	1000 to 10000	1000 to 10000
CN1CCC(c2ccc3nc(-c4cc5cn(C)nc5cc4O)ccc3n2)CC1 [Compound 142, 2-methyl-5-[6-(1-methylpiperidin-4-yl)-1,5-naphthyridin-2-yl]indazol-6-ol]	100 to 1000	100 to 1000	< 100	100 to 1000	100 to 1000
COc1cc2nn(C)cc2cc1-c1ccc2c(F)c(C3CCNCC3)ccc2n1 [Compound 143, 5-fluoro-2-(6-methoxy-2-methylindazol-5-yl)-6-(piperidin-4-yl)quinoline]	> 10000	> 10000	> 10000	> 10000	> 10000
Cn1cc2cc(-c3ccc4cc(C5CCNCC5)c(F)cc4n3)c(O)cc2n1 [Compound 144, 5-[7-fluoro-6-(piperidin-4-yl)quinolin-2-yl]-2-methylindazol-6-01]	> 10000	> 10000	> 10000	> 10000	> 10000
COc1cc2nn(C)cc2cc1-c1ccc2cc(C3CCNCC3)c(F)cc2n1 [Compound 145, 7-fluoro-2-(6-methoxy-2-methylindazol-5-yl)-6-(piperidin-4-yl)quinoline]	> 10000	> 10000	> 10000	> 10000	> 10000
Cn1cc2cc(O)c(-c3ccc4nc(C5CCNCC5)ccc4n3)cc2n1 [Compound 146, 2-methyl-6-[6-(piperidin-4-yl)-1,5-naphthyridin-2-yl]indazol-5-ol]	1000 to 10000	1000 to 10000	100 to 1000	1000 to 10000	1000 to 10000
Cc1nc2cc(O)c(-c3ccc4nc(C5CCNCC5)ccc4n3)cc2o1 [Compound 147, 2-methyl-6-[6-(piperidin-4-yl)-1,5-naphthyridin-2-yl]-1,3-benzoxazol-5-ol]	< 100	< 100	< 100	< 100	< 100
Cc1nc2cc(O)c(-c3ccc4nc(C5CCNCC5)ccc4n3)cc2s1 [Compound 148]	1000 to 10000	1000 to 10000	< 100	1000 to 10000	1000 to 10000
Cc1cn2cc(-c3ccc4nc(C5CCNCC5)ccc4n3)c(O)cc2n1 [Compound 149, 2-methyl-6-[6-(piperidin-4-yl)-1,5-naphthyridin-2-yl]imidazo[1,2-a]pyridin-7-ol]	> 10000	> 10000	100 to 1000	> 10000	> 10000
Cc1cn2nc(-c3ccc4nc(C5CCNCC5)ccc4n3)c(O)c2c(C)n1 [Compound 150, 4,6-dimethyl-2-[6-(piperidin-4-yl)-1,5-naphthyridin-2-yl]pyrazolo[1,5-a]pyrazin-3-01]	< 100	< 100	< 100	< 100	< 100
Cc1cn2cc(-c3ccc4nc(C5CCNCC5)ccc4n3)c(O)c(C)c2n1 [Compound 151, 2,8-dimethyl-6-(6-(piperidin-4-yl)-1,5-naphthyridin-2-yl)imidazo[1,2-a]pyridin-7-ol hydrochloride]	100 to 1000	100 to 1000	100 to 1000	100 to 1000	100 to 1000
c1c[nH]c(-c2ccc3nc(C4CCNCC4)ccc3n2)n1 [Compound 152, 2-(1H-imidazol-2-yl)-6-(piperidin-4-yl)-1,5-naphthyridine]	> 10000	> 10000	1000 to 10000	> 10000	> 10000
Cn1cc2cc(-c3ccc4nc(N5CC[C@@H](NC(C)(C)C)C5)ccc4n3)c(O)cc2n1 [Compound 153, 5-{6-[(3R)-3-(tert-butylamino)pyrrolidin-1-yl]-1,5-naphthyridin-2-yl}-2-methylindazol-6-ol]	< 100	< 100	< 100	< 100	< 100
